We go through 15 compounds from ChEMBL document CHEMBL1144555, “Chemoenzymatic synthesis and antimicrobial activity evaluation of monoglucosyl diglycerides” (2007).

What all share (assay type): functional
Test [1] concerns Staphylococcus aureus. Put plainly: Antimicrobial activity against Staphylococcus aureus ATCC 105487.
The next test deals with Kluyveromyces marxianus. As to the kind of experiment: Antimicrobial activity against Candida pseudotropicalis.
Test [2] deals with Staphylococcus aureus. As to the kind of experiment: Antimicrobial activity against Staphylococcus aureus 52.
Test [3] relates to Mycobacterium tuberculosis. As to the kind of experiment: Antimicrobial activity against Mycobacterium tuberculosis H37Rv.
Another test deals with Enterococcus faecalis. As to the kind of experiment: Antimicrobial activity against Enterococcus faecalis ATCC 29212.
Test [4] concerns Staphylococcus aureus. As to the kind of experiment: Antimicrobial activity against Staphylococcus aureus 87.
In test [5] the test system is Staphylococcus aureus. As to the kind of experiment: Antimicrobial activity against Staphylococcus aureus ATCC 25923.
For test [6], the system named is Mycobacterium tuberculosis. As to the kind of experiment: Antimicrobial activity against Mycobacterium tuberculosis H160.
Another test has as its system Escherichia coli. Put plainly: Antimicrobial activity against Escherichia coli ATCC 25922.
A further test deals with Candida albicans. Put plainly: Antimicrobial activity against Candida albicans.
For test [7], the system named is Staphylococcus aureus. Put plainly: Antimicrobial activity against Staphylococcus aureus 85.
Another test has as its system Pseudomonas aeruginosa. Put plainly: Antimicrobial activity against Pseudomonas aeruginosa ATCC 27753.
In a further test the test system is Bacillus subtilis. As to the kind of experiment: Antimicrobial activity against Bacillus subtilis ATCC 6633.
Test [8] concerns Mycobacterium tuberculosis. As to the kind of experiment: Antimicrobial activity against Mycobacterium tuberculosis H190.

Values after ≈ are worked out from the molar mass of the structure shown.

The MIC is the lowest concentration that inhibits growth of the organism. Low readings indicate inhibition by little substance, high ones a need for much substance. For the compound `CCCCCCCCCCCCCCCCCC(=O)OCC(CO[C@@H]1O[C@H](CO)[C@@H](O)[C@H](O)[C@H]1O)OC(=O)CCCCCCCCCCCCCCCCC` (mixture of isomers), the MIC (against Staphylococcus aureus [1]; with Kluyveromyces marxianus; with Staphylococcus aureus [2]; in test [3]; in the test on Enterococcus faecalis; against Staphylococcus aureus [4]) was over 128 µg/mL each time. Moreover, the MIC (with Staphylococcus aureus [5]; in test [6]; in the test with Escherichia coli; with Candida albicans; with Staphylococcus aureus [7]; against Pseudomonas aeruginosa) was over 128 µg/mL each time. The MIC (against Bacillus subtilis; in test [8]) was over 128 µg/mL in each case.

As for `CCCCC/C=C/C/C=C/CCCCCCCC(=O)OC(COC(=O)CCCCCCC)CO[C@@H]1O[C@H](CO)[C@@H](O)[C@H](O)[C@H]1O` (mixture of isomers), the MIC in the test on Staphylococcus aureus [1] was over 128 µg/mL; with Kluyveromyces marxianus, over 128 µg/mL; in the test on Staphylococcus aureus [2], over 128 µg/mL; in test [3] it was 64 µg/mL; in the test on Enterococcus faecalis, over 128 µg/mL; in the test with Staphylococcus aureus [4] it was 64 µg/mL. The MIC in the test on Staphylococcus aureus [5] was over 128 µg/mL; in test [6] it was 128 µg/mL; in the test with Escherichia coli, over 128 µg/mL; against Candida albicans, over 128 µg/mL; in the test on Staphylococcus aureus [7], over 128 µg/mL; with Pseudomonas aeruginosa it was over 128 µg/mL. Further, the figures for the MIC (in the test on Bacillus subtilis; in [8]) were 128 µg/mL and 64 µg/mL, respectively.

Regarding `CC/C=C/C/C=C/C/C=C/CCCCCCCC(=O)OC(COC(=O)CCCCCCCCC)CO[C@@H]1O[C@H](CO)[C@@H](O)[C@H](O)[C@H]1O` (mixture of isomers), the MIC was over 128 µg/mL in the test on Staphylococcus aureus [1]; over 128 µg/mL with Kluyveromyces marxianus; over 128 µg/mL in the test with Staphylococcus aureus [2]; over 128 µg/mL in [3]; over 128 µg/mL against Enterococcus faecalis; 32 µg/mL in the test on Staphylococcus aureus [4]. Besides, the MIC is over 128 µg/mL against Staphylococcus aureus [5]; over 128 µg/mL in [6]; over 128 µg/mL against Escherichia coli; over 128 µg/mL with Candida albicans; 64 µg/mL against Staphylococcus aureus [7]; over 128 µg/mL against Pseudomonas aeruginosa. The MIC (against Bacillus subtilis; in test [8]) was over 128 µg/mL each time.

For the compound `CCCCCCCC(=O)OCC(CO[C@@H]1O[C@H](CO)[C@@H](O)[C@H](O)[C@H]1O)OC(=O)CCCCCCC` (mixture of isomers), the MIC in the test on Staphylococcus aureus [1] is 32 µg/mL; against Kluyveromyces marxianus, over 128 µg/mL; against Staphylococcus aureus [2], over 128 µg/mL; in [3], 64 µg/mL; with Enterococcus faecalis, 32 µg/mL; in the test on Staphylococcus aureus [4], 16 µg/mL. Further, the MIC with Staphylococcus aureus [5] is 16 µg/mL; in [6] it was 64 µg/mL; against Escherichia coli it was over 128 µg/mL; against Candida albicans, over 128 µg/mL; in the test on Staphylococcus aureus [7] it was 16 µg/mL; in the test with Pseudomonas aeruginosa, over 128 µg/mL. Besides, the MIC in the test with Bacillus subtilis is 16 µg/mL; in [8], 64 µg/mL.

Regarding `O=C(O)c1cn(C2CC2)c2cc(N3CCNCC3)c(F)cc2c1=O` [CIPROFLOXACIN], the MIC was 0.25 µg/mL (≈ 0.754 µM) against Staphylococcus aureus [1]; over 4 µg/mL in the test with Staphylococcus aureus [2]; 0.5 µg/mL (≈ 1.51 µM) in test [3]; 1 µg/mL (≈ 3.02 µM) against Enterococcus faecalis; 0.5 µg/mL (≈ 1.51 µM) with Staphylococcus aureus [4]; 0.5 µg/mL (≈ 1.51 µM) against Staphylococcus aureus [5]. For the same compound, the MIC in test [6] came to 0.5 µg/mL (≈ 1.51 µM); with Staphylococcus aureus [7] it was 0.5 µg/mL (≈ 1.51 µM); against Pseudomonas aeruginosa, 1 µg/mL (≈ 3.02 µM); against Bacillus subtilis, 0.25 µg/mL (≈ 0.754 µM); in test [8] it was 0.5 µg/mL (≈ 1.51 µM).

Turning to `CC/C=C/C/C=C/C/C=C/CCCCCCCC(=O)OC(COC(=O)CCCCCCC)CO[C@@H]1O[C@H](CO)[C@@H](O)[C@H](O)[C@H]1O` (mixture of isomers), the MIC in the test with Staphylococcus aureus [1] was over 128 µg/mL; in the test on Kluyveromyces marxianus, over 128 µg/mL; against Staphylococcus aureus [2], over 128 µg/mL; in test [3] it was 64 µg/mL; with Enterococcus faecalis, over 128 µg/mL; in the test with Staphylococcus aureus [4], 64 µg/mL. Further, the MIC was over 128 µg/mL in the test on Staphylococcus aureus [5]; 128 µg/mL in [6]; over 128 µg/mL in the test with Escherichia coli; over 128 µg/mL against Candida albicans; over 128 µg/mL against Staphylococcus aureus [7]; over 128 µg/mL in the test with Pseudomonas aeruginosa. Moreover, the MIC with Bacillus subtilis amounted to 128 µg/mL; in [8], 64 µg/mL.

As for `CCCCCCCCCCCC(=O)OCC(CO[C@@H]1O[C@H](CO)[C@@H](O)[C@H](O)[C@H]1O)OC(=O)CCCCCCCCCCC` (mixture of isomers), the MIC (against Staphylococcus aureus [1]; with Kluyveromyces marxianus; against Staphylococcus aureus [2]; in [3]; in the test with Enterococcus faecalis; against Staphylococcus aureus [4]) was over 128 µg/mL in each case. For the same compound, the MIC (against Staphylococcus aureus [5]; in [6]; against Escherichia coli; against Candida albicans; with Staphylococcus aureus [7]; in the test with Pseudomonas aeruginosa) was over 128 µg/mL each time. Besides, the minimal inhibitory concentration (MIC) (with Bacillus subtilis; in test [8]) was over 128 µg/mL throughout.

Consider `CCCCCCCC/C=C/CCCCCCCC(=O)OCC(CO[C@@H]1O[C@H](CO)[C@@H](O)[C@H](O)[C@H]1O)OC(=O)CCCCCCC/C=C/CCCCCCCC` (mixture of isomers), for which the MIC (against Staphylococcus aureus [1]; in the test with Kluyveromyces marxianus; in the test on Staphylococcus aureus [2]; in test [3]; in the test with Enterococcus faecalis; against Staphylococcus aureus [4]) was over 128 µg/mL each time. Further, the MIC (in the test on Staphylococcus aureus [5]; in test [6]; against Escherichia coli; with Candida albicans; with Staphylococcus aureus [7]; with Pseudomonas aeruginosa) was over 128 µg/mL throughout. Further, the MIC (against Bacillus subtilis; in test [8]) was over 128 µg/mL in each case.

Take `CC/C=C/C/C=C/C/C=C/CCCCCCCC(=O)OCC(CO[C@@H]1O[C@H](CO)[C@@H](O)[C@H](O)[C@H]1O)OC(=O)CCCCCCC/C=C/C/C=C/C/C=C/CC` (stereo not given in full): the MIC (with Staphylococcus aureus [1]; against Kluyveromyces marxianus; against Staphylococcus aureus [2]; in [3]; in the test on Enterococcus faecalis; against Staphylococcus aureus [4]) was over 128 µg/mL throughout. The MIC (with Staphylococcus aureus [5]; in test [6]; with Escherichia coli; in the test with Candida albicans; with Staphylococcus aureus [7]; against Pseudomonas aeruginosa) was over 128 µg/mL each time. The MIC (in the test with Bacillus subtilis; in test [8]) was over 128 µg/mL throughout.

For `CCCCCCCCCCCCCC(=O)OCC(CO[C@@H]1O[C@H](CO)[C@@H](O)[C@H](O)[C@H]1O)OC(=O)CCCCCCCCCCCCC` (stereo not given in full), the MIC (in the test on Staphylococcus aureus [1]; against Kluyveromyces marxianus; against Staphylococcus aureus [2]; in test [3]; against Enterococcus faecalis; against Staphylococcus aureus [4]) was over 128 µg/mL in each case. In addition, the MIC (in the test with Staphylococcus aureus [5]; in test [6]; against Escherichia coli; in the test with Candida albicans; in the test with Staphylococcus aureus [7]; with Pseudomonas aeruginosa) was over 128 µg/mL throughout. The MIC (against Bacillus subtilis; in test [8]) was over 128 µg/mL in each case.

For `CCCCCCCC/C=C/CCCCCCCC(=O)OC(COC(=O)CCCCCCCCC)CO[C@@H]1O[C@H](CO)[C@@H](O)[C@H](O)[C@H]1O` (mixture of isomers), the MIC (against Staphylococcus aureus [1]; in the test with Kluyveromyces marxianus; against Staphylococcus aureus [2]; in test [3]; against Enterococcus faecalis; against Staphylococcus aureus [4]) was over 128 µg/mL throughout. In addition, the MIC is 8 µg/mL in the test with Staphylococcus aureus [5]; over 128 µg/mL in [6]; over 128 µg/mL in the test on Escherichia coli; over 128 µg/mL against Candida albicans; 128 µg/mL against Staphylococcus aureus [7]; over 128 µg/mL against Pseudomonas aeruginosa. The MIC in the test on Bacillus subtilis is 32 µg/mL; in [8], over 128 µg/mL.

As to `CCCCC/C=C/C/C=C/CCCCCCCC(=O)OC(COC(=O)CCCCCCCCC)CO[C@@H]1O[C@H](CO)[C@@H](O)[C@H](O)[C@H]1O` (mixture of isomers), the MIC was 32 µg/mL against Staphylococcus aureus [1]; over 128 µg/mL in the test with Kluyveromyces marxianus; over 128 µg/mL in the test on Staphylococcus aureus [2]; over 128 µg/mL in [3]; 64 µg/mL with Enterococcus faecalis; over 32 µg/mL against Staphylococcus aureus [4]. Also, the MIC in the test on Staphylococcus aureus [5] was over 128 µg/mL; in test [6], over 128 µg/mL; in the test with Escherichia coli, over 128 µg/mL; with Candida albicans, over 128 µg/mL; in the test with Staphylococcus aureus [7], 32 µg/mL; against Pseudomonas aeruginosa, over 128 µg/mL. For the same compound, the MIC was 128 µg/mL against Bacillus subtilis and over 128 µg/mL in test [8].

`CCCCC/C=C/C/C=C/CCCCCCCC(=O)OCC(CO[C@@H]1O[C@H](CO)[C@@H](O)[C@H](O)[C@H]1O)OC(=O)CCCCCCC/C=C/C/C=C/CCCCC` (mixture of isomers): the MIC in the test on Staphylococcus aureus [1] was over 128 µg/mL; with Kluyveromyces marxianus, over 128 µg/mL; against Staphylococcus aureus [2] it was over 128 µg/mL; in test [3] it was 64 µg/mL; with Enterococcus faecalis, over 128 µg/mL; with Staphylococcus aureus [4], 64 µg/mL. Also, the MIC with Staphylococcus aureus [5] is over 128 µg/mL; in test [6], 64 µg/mL; against Escherichia coli, over 128 µg/mL; against Candida albicans, over 128 µg/mL; with Staphylococcus aureus [7] it was over 128 µg/mL; against Pseudomonas aeruginosa, over 128 µg/mL. The minimal inhibitory concentration (MIC) (against Bacillus subtilis; in test [8]) was 128 µg/mL each time.

Take `Clc1ccc(COC(Cn2ccnc2)c2ccc(Cl)cc2Cl)c(Cl)c1` (stereo not given) [MICONAZOLE]: the MIC in the test on Kluyveromyces marxianus is 0.5 µg/mL (≈ 1.2 µM); against Candida albicans, 8 µg/mL (≈ 19.2 µM).

Take `CCCCCCCC/C=C/CCCCCCCC(=O)OC(COC(=O)CCCCCCC)CO[C@@H]1O[C@H](CO)[C@@H](O)[C@H](O)[C@H]1O` (mixture of isomers): the MIC against Staphylococcus aureus [1] is over 128 µg/mL; in the test with Kluyveromyces marxianus it was over 128 µg/mL; in the test with Staphylococcus aureus [2], over 128 µg/mL; in test [3], 64 µg/mL; in the test on Enterococcus faecalis, over 128 µg/mL; in the test on Staphylococcus aureus [4] it was 64 µg/mL. The MIC is over 128 µg/mL with Staphylococcus aureus [5]; 64 µg/mL in test [6]; over 128 µg/mL in the test with Escherichia coli; over 128 µg/mL in the test on Candida albicans; over 128 µg/mL in the test on Staphylococcus aureus [7]; over 128 µg/mL against Pseudomonas aeruginosa. In addition, the MIC stood at 128 µg/mL with Bacillus subtilis and 64 µg/mL in [8].
